Results on 12 molecules are retold here after patent US20240228512A1, “ACYCLIC OXAZEPINE COMPOUNDS COMPRISING A 6-AZA MOIETY AND USES THEREOF” (Genentech, Inc., priority 2022, published 2024).

The subject of assay [1] is SW620 cells. Nature of the assay: SW620 3D proliferation assay (CellTiter-Glo). The format is cell-based. The settings on record: Homo sapiens, SW-620, 168 h, SW620, 3D culture, 7 days, read-out: SW620 CTG IC50. As for the experimental part:
(§1) SW620 and HPAC 3D proliferation assays.
(§2) Compound potencies were assessed in proliferation assays conducted with SW620 and HPAC cell lines grown in 3D cultures. Cells were seeded into 96- or 384-well ultra-low attachment plates at 3000 or 1000 cells/well, respectively, in culture medium (RPMI-1640, 10% FBS, 2 mM L-glutamine). The plated cells were centrifuged briefly, allowed to rest for 30 minutes under ambient conditions, and cultured overnight at 37° C./5% CO2 to initiate the formation of spheroids. Compound dilutions were prepared across a range of concentrations in DMSO and added to the appropriate wells of the assay plates with a 333-fold dilution into the culture medium. The plates were further incubated for 7 days. The quantity of viable cells was assessed using CellTiter-Glo 3D Cell Viability Assay (Promega). The detection reagent penetrates the spheroids and lyses the cells. The released ATP that was detected with luciferase and a luciferase substrate to generate a luminescent readout. […] The data points were fit to a 4-parameter logistic equation to determine IC50 values.

Assay [2] has as its system H1975 cells. Nature of the assay: H1975 CTG proliferation assay. The format is cell-based. The settings on record: Homo sapiens, NCI-H1975, H1975, CTG.
Assay [3] addresses recombinant human mutant KRas G12V (SOS1-mediated nucleotide exchange) (Homo sapiens (Human), UniProt P01116, G12V). Nature of the assay: KRAS biochemical assay, BODIPY-GDP exchange TR-FRET (G12V-GDP HTRF).
In assay [4] the test system is HPAC cells. Nature of the assay: HPAC 3D proliferation assay (CellTiter-Glo). It is filed as cell-based. Particulars: Homo sapiens, 168 h, 3D culture, 7 days, read-out: HPAC CTG IC50. The protocol:
as §1, §2

In assay [5] the target is recombinant human KRAS wild type (SOS1-mediated nucleotide exchange) (Homo sapiens (Human), UniProt P01116). Nature of the assay: KRAS biochemical assay, BODIPY-GDP exchange TR-FRET (WT-GDP HTRF). As for the experimental part:
[Worded in the source for another variant; this variant is reported under the same test.] KRAS Biochemical Assay—BODIPY-GDP Exchange TR-FRET.
Biochemical compound potencies were assessed by evaluating inhibition of SOS1-mediated nucleotide exchange in KRAS G12D. The SOS1-promoted exchange of fluorescently-labeled GDP (BOPIDY-GDP) was monitored by time-resolved fluorescence resonance energy transfer (TR-FRET). Compounds solubilized in DMSO were dispensed as concentration series into 384-well white assay plates. […] The reaction was initiated with the addition of 5 μL of 3 nM recombinant human SOS1 and 300 nM BODIPY-GDP in assay buffer. After a 60-minute incubation, the fluorescence was measured with excitation at 337 nm and emission at 490 and 520 nm. The TR-FRET ratio was determined as the fluorescence at 520 nm divided by the fluorescence at 490 nm multiplied by 10,000. […] The normalized TR-FRET results were plotted against compound concentration, and the data fit to a 4-parameter Hill equation to determine the IC50 values.

In assay [6] the test system is SW620 PERK. Nature of the assay: SW620 PERK assay. It is filed as cell-based. Particulars: Homo sapiens, SW-620, SW620, PERK.

Sequence of recombinant human mutant KRas G12V (SOS1-mediated nucleotide exchange) (P01116-2 other isoform, or with tags, fused parts or gaps G12V): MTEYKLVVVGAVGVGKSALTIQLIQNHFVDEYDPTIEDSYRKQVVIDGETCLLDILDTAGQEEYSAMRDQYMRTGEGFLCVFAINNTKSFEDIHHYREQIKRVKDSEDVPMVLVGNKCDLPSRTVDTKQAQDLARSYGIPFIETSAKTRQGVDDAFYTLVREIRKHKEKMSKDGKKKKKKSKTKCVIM
Sequence of recombinant human KRAS wild type (SOS1-mediated nucleotide exchange) (P01116-2 other isoform, or with tags, fused parts or gaps): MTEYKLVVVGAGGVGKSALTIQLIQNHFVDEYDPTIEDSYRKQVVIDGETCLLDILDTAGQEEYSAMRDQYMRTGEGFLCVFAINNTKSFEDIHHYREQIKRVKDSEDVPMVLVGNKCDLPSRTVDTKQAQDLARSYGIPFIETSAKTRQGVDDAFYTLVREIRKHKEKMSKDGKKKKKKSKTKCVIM

Consider `Cc1nc(N)cc(-c2nc3c4c(nc(OC[C@@]56CCN5C[C@]5(CC5(F)F)C6)nc4c2F)N([C@H](C)c2cccnc2N)CCO3)c1C(F)(F)F` [Example 605], for which the IC50 in assay [1] amounted to 0.0113 µM; in assay [2] it was 0.004 µM; in assay [3], 0.00014 µM; in assay [4], 0.094 µM; in assay [5], 0.00019 µM; in assay [6] it was 0.0119 µM.

For `Cc1nc(N)cc(-c2nc3c4c(nc(OC[C@@]56CCN5C[C@]5(CC5(F)F)C6)nc4c2F)N([C@H](C)c2cncnc2N)CCO3)c1C(F)(F)F` [Example 606], the IC50 in assay [1] was 1.52 µM; in assay [2] it was 0.374 µM; in assay [3], 0.0002 µM; in assay [4], above 2 µM; in assay [5], 0.000808 µM; in assay [6], 0.855 µM.

On to `Cc1cc(N)nc(-c2nc3c4c(nc(OC[C@@]56CCCN5C[C@H](F)C6)nc4c2F)N(C(C)c2scnc2N)CCO3)c1C(F)(F)F` (stereo partly drawn) [Example 607, 5-(1-(5-(6-amino-4-methyl-3-(trifluoromethyl)pyridin-2-yl)-4-fluoro-2-(((2R,7aS)-2-fluorotetrahydro-1H-pyrrolizin-7a(5H)-yl)methoxy)-8,9-dihydro-10H-7-oxa-1,3,6,10-tetraazacyclohepta[de]naphthalen-10-yl)ethyl)thiazol-4-amine], for which the IC50 in assay [1] is 0.0907 µM; in assay [2], 0.0355 µM; in assay [3], 0.00027 µM; in assay [4], 0.302 µM; in assay [5], 0.00069 µM; in assay [6] it was 0.0178 µM.

As for `C[C@H](c1cccnc1N)N1CCOc2nc(-c3cc(N)ncc3C(F)(F)F)c(F)c3nc(OC[C@@]45CCCN4C[C@H](F)C5)nc1c23` [Example 608, 4-(10-((R)-1-(2-aminopyridin-3-yl)ethyl)-4-fluoro-2-(((2R,7aS)-2-fluorotetrahydro-1H-pyrrolizin-7a(5H)-yl)methoxy)-9,10-dihydro-8H-7-oxa-1,3,6,10-tetraazacyclohepta[de]naphthalen-5-yl)-5-(trifluoromethyl)pyridin-2-amine], the IC50 came out at 0.246 µM in assay [1]; 0.243 µM in assay [2]; 0.00052 µM in assay [3]; 0.917 µM in assay [4]; 0.00338 µM in assay [5]; 0.0451 µM in assay [6].

For the molecule `Cc1c(F)c(N)nc(-c2nc3c4c(nc(OC[C@@]56CCCN5C[C@H](F)C6)nc4c2F)N([C@H](C)c2cncnc2N)CCO3)c1C(F)(F)F` [Example 613, 5-((R)-1-(5-(6-amino-5-fluoro-4-methyl-3-(trifluoromethyl)pyridin-2-yl)-4-fluoro-2-(((2R,7aS)-2-fluorotetrahydro-1H-pyrrolizin-7a(5H)-yl)methoxy)-8,9-dihydro-10H-7-oxa-1,3,6,10-tetraazacyclohepta[de]naphthalen-10-yl)ethyl)pyrimidin-4-amine], the IC50 in assay [1] came to 0.29 µM; in assay [2] it was 0.16 µM; in assay [3], 0.00024 µM; in assay [4] it was 1.52 µM; in assay [5], 0.00145 µM; in assay [6] it was 0.146 µM.

Regarding `Cc1c(F)c(N)nc(-c2nc3c4c(nc(OC[C@@]56CCCN5C[C@]5(CC5(F)F)C6)nc4c2F)N([C@H](C)c2cccnc2N)CCO3)c1C(F)(F)F` [Example 614], the IC50 is 0.00175 µM in assay [1]; 1.96 µM in assay [2]; 0.00012 µM in assay [3]; 0.0115 µM in assay [4]; 0.00016 µM in assay [5]; 0.00242 µM in assay [6].

On to `Cc1c(F)c(N)cc(-c2nc3c4c(nc(OC[C@@]56CCCN5C[C@H](F)C6)nc4c2F)N([C@H](C)c2cncnc2N)CCO3)c1C(F)(F)F` [Example 617, 5-((R)-1-(5-(5-amino-4-fluoro-3-methyl-2-(trifluoromethyl)phenyl)-4-fluoro-2-(((2R,7aS)-2-fluorotetrahydro-1H-pyrrolizin-7a(5H)-yl)methoxy)-8,9-dihydro-10H-7-oxa-1,3,6,10-tetraazacyclohepta[de]naphthalen-10-yl)ethyl)pyrimidin-4-amine], for which the IC50 was found to be 0.038 µM in assay [1]; 0.0244 µM in assay [2]; 0.00011 µM in assay [3]; 0.239 µM in assay [4]; 0.00031 µM in assay [5]; 0.0288 µM in assay [6].

For `C[C@H](c1cccnc1N)N1CCOc2nc(-c3nc(N)cc4ccccc34)c(F)c3nc(OC[C@@]45CCCN4C[C@H](F)C5)nc1c23` [Example 618, 1-(10-((R)-1-(2-aminopyridin-3-yl)ethyl)-4-fluoro-2-(((2R,7aS)-2-fluorotetrahydro-1H-pyrrolizin-7a(5H)-yl)methoxy)-9,10-dihydro-8H-7-oxa-1,3,6,10-tetraazacyclohepta[de]naphthalen-5-yl)isoquinolin-3-amine], the IC50 came out at 0.393 µM in assay [1]; 0.0932 µM in assay [2]; 0.00045 µM in assay [3]; 1.05 µM in assay [4]; 0.00343 µM in assay [5]; 0.233 µM in assay [6].

For the molecule `Cc1c(F)c(N)nc(-c2nc3c4c(nc(OC[C@@]56CCCN5C[C@H](F)C6)nc4c2Cl)N([C@H](C)c2cccnc2N)CCO3)c1C(F)(F)F` [Example 620, 6-(10-((R)-1-(2-aminopyridin-3-yl)ethyl)-4-chloro-2-(((2R,7aS)-2-fluorotetrahydro-1H-pyrrolizin-7a(5H)-yl)methoxy)-9,10-dihydro-8H-7-oxa-1,3,6,10-tetraazacyclohepta[de]naphthalen-5-yl)-3-fluoro-4-methyl-5-(trifluoromethyl)pyridin-2-amine], the IC50 in assay [1] came out at 0.0192 µM; in assay [2], 0.132 µM; in assay [3], 0.00024 µM; in assay [4], 0.0898 µM; in assay [5], 0.000748 µM; in assay [6], 0.00429 µM.

With `Cc1nc(N)cc(-c2nc3c4c(nc(OC[C@@]56CCCN5C[C@H](F)C6)nc4c2Cl)N([C@H](C)c2cccnc2N)CCO3)c1C(F)(F)F` [Example 626, 4-(10-((R)-1-(2-aminopyridin-3-yl)ethyl)-4-chloro-2-(((2R,7aS)-2-fluorotetrahydro-1H-pyrrolizin-7a(5H)-yl)methoxy)-9,10-dihydro-8H-7-oxa-1,3,6,10-tetraazacyclohepta[de]naphthalen-5-yl)-6-methyl-5-(trifluoromethyl)pyridin-2-amine], the IC50 in assay [1] came to 0.0271 µM; in assay [2], 0.262 µM; in assay [3] it was 0.00016 µM; in assay [4] it was 0.16 µM; in assay [5] it was 0.00067 µM; in assay [6] it was 0.0105 µM.

As for `Cc1nc(N)cc(-c2nc3c4c(nc(OC[C@@H]5CCCN5C)nc4c2F)N([C@H](C)c2cccnc2N)CCO3)c1C(F)(F)F` [Example 627, 4-(10-((R)-1-(2-aminopyridin-3-yl)ethyl)-4-fluoro-2-(((S)-1-methylpyrrolidin-2-yl)methoxy)-9,10-dihydro-8H-7-oxa-1,3,6,10-tetraazacyclohepta[de]naphthalen-5-yl)-6-methyl-5-(trifluoromethyl)pyridin-2-amine], the IC50 in assay [1] was found to be 0.193 µM; in assay [2], 0.854 µM; in assay [3], 0.00044 µM; in assay [4], 1.36 µM; in assay [5], 0.00467 µM; in assay [6], 0.0526 µM.

For the molecule `Cc1nc(N)nc(-c2nc3c4c(nc(OC[C@@]56CCCN5C[C@H](F)C6)nc4c2F)N([C@H](C)c2cccnc2N)CCO3)c1C(F)(F)F` [Example 628, 4-(10-((R)-1-(2-aminopyridin-3-yl)ethyl)-4-fluoro-2-(((2R,7aS)-2-fluorotetrahydro-1H-pyrrolizin-7a(5H)-yl)methoxy)-9,10-dihydro-8H-7-oxa-1,3,6,10-tetraazacyclohepta[de]naphthalen-5-yl)-6-methyl-5-(trifluoromethyl)pyrimidin-2-amine], the IC50 in assay [1] was found to be 0.0146 µM; in assay [2], 0.471 µM; in assay [3], 0.00033 µM; in assay [4] it was 0.331 µM; in assay [5], 0.000826 µM; in assay [6] it was 0.014 µM.
